What is called Emax is the greatest response seen or fitted, relative to the assay's reference. The term pEC50 denotes −log10 of the EC50, conventionally taken in molar units.

Assay [1] concerns the target T1, human GPR142 (Homo sapiens, UniProt Q7Z601).
T1 construct: expressed in transfected cells
T1 sequence (Q7Z601 1-374 isoform Q7Z601-2): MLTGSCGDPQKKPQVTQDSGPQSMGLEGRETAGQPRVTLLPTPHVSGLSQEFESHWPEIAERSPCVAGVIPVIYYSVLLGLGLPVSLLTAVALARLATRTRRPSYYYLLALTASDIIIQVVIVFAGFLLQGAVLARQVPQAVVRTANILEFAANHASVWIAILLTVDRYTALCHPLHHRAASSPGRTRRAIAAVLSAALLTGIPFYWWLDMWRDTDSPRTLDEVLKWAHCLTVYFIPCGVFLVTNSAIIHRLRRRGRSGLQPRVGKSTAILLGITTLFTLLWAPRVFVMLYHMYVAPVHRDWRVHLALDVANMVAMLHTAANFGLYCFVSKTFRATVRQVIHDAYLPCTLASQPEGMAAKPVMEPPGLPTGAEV
Description: IP-1 accumulation assay in HEK293 cells stably expressing human GPR142. The format is cell-based. To be noted: for HEK293-hGPR142 EC50 (Emax): activity call, tested 170 nM to 30 mM; for pEC50: IP-1 accumulation, 1 hour, read-out: HEK293-hGPR142 EC50. Here is the method: (§1) HEK293 cells obtained from ATCC were used to generate cell lines stably expressing human GPR142 or mouse Gpr142 by transfecting cells with pcDNA3.1 expression vectors containing each cDNA. Cells expanded from single clones were maintained in DMEM containing 10% fetal bovine serum (FBS) and 800 μg/ml G418. Untransfected control HEK293 cells were maintained in DMEM containing 10% FBS. Cells were plated in 384 well plates at 5000 cells per well and allowed 18 hours for attachment. After addition of compounds, cells were incubated for 1 hour. IP-1 measurements were performed using an HTRF assay kit (Cisbio) according to manufacturer’s protocol using assay buffer containing 1 × HBSS (Hank’s Balanced Salt Solution, +Ca, +Mg), 0.1% bovine serum albumin (BSA), 50 mM LiCl and 20 mM HEPES (4-(2-hydroxyethyl)-1-piperazineethanesulfonic acid), pH 7.2. The reaction was stopped by addition of IP1-d2 followed by cryptate solution and the plates were incubated at 25°C for 1 hour. Fluorescence was read in an Envision instrument at 665 nm and 620 nm. The ratio of 665 nm/620 nm was calculated and converted to IP-1 levels using a standard curve method. The data was fit to 4-parameter fit logistics to determine EC50 values.

In assay [2] the target is T2, mouse GPR142 (Mus musculus, UniProt Q7TQN9).
T2 sequence (Q7TQN9 67-365 limits assumed): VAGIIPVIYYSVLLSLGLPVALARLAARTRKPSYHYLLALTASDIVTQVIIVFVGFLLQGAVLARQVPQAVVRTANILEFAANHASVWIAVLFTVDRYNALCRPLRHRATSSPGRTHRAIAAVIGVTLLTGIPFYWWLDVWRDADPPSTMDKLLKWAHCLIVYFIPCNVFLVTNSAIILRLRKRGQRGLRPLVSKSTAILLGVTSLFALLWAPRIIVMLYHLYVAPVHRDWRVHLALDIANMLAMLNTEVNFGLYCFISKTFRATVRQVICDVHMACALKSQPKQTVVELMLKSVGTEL
Description: IP-1 accumulation assay in HEK293 cells stably expressing mouse Gpr142. The class given is cell-based. To be noted: for Emax: HEK293, relative efficacy normalized to maximal response of L-Tryptophan (100%), read-out: HEK293-mGPR142 Emax; for pEC50: IP-1 accumulation, 1 hour, read-out: HEK293-mGPR142 EC50. Here is the method: as §1

The subject of assay [3] is murine pancreatic islets. Briefly: Insulin secretion in isolated murine pancreatic islets (WT and Gpr142 KO). The format is cell-based, mouse. The note with it: 11.1 mM glucose, 1 hour. Here is the method: Secretion was stopped by refrigerating the plates at 4°C for 3 minutes. Supernatant was removed from the wells and assayed for insulin levels using the MA6000 Mouse/Rat Insulin Kit (Meso Scale Discovery).

Assay [4] is described as follows: Glucose tolerance test (IPGTT/OGTT) after oral dosing in mice. The format is in vivo, mouse. On the procedure:
(§2) Mice were fasted overnight and allowed free access to water. […] Tail blood glucose levels were measured at indicated time points using handheld glucometers. For incretin hormone measurements, blood was collected via cardiac bleeds into EDTA-tubes containing DPP-4 inhibitor (Millipore) and protease inhibitor cocktail (Thermo Fisher). For insulin measurements during GTT, blood was collected from the tail.

Assay [5] is described as follows: Plasma insulin and incretin hormone levels after oral dosing in mice. The class given is in vivo, mouse. On the procedure: as §2
Immunoassays were used to measure total GIP (Millipore, ELISA), total GLP-1, and insulin (Meso Scale Discovery). Enzymatic assays were used to measure TG, beta-hydroxybutarate (Sigma-Aldrich), and total cholesterol (Thermo Fisher). HDL-cholesterol was determined in the supernatant after removal of LDL/vLDL-cholesterol by a precipitation reagent (Sigma-Aldrich); non-HDL-cholesterol was determined by subtracting HDL from total cholesterol. Free fatty acids were measured by GC-MS.

In assay [6] the test system is human pancreatic islets. Description: Insulin secretion in isolated human pancreatic islets. The note with it: 11 mM glucose, 1 hour, non-diabetic donor. The class given is cell-based. The text has this:
Human pancreatic islets were purchased from Prodo Labs at the Scharp-Lacy Research Institute (Irvine, CA, www.prodolabs.com) through the Integrated Islet Distribution Program in accordance with internal review board (IRB) ethical guidelines for use of human tissue. Islets were isolated at Prodo Labs from human pancreata from listed cadaver organ donors that were refused for primary human pancreas transplantation or isolated islets transplantion into listed diabetic recipients. […] The next day day islets were incubated for 30 min in EBSS buffer containing 0.1% BSA and 3 mM glucose. […] Islets were cultured for 60 min at 37°C. The incubation was stopped by chilling the samples on ice. The culture media was removed and stored at -20°C until its insulin concentration was measured. Insulin was measured using a custom built immunoassay (Meso Scale Discovery).

Setting [7] is: HEK293, relative efficacy normalized to maximal response of L-Tryptophan (100%), read-out: HEK293-hGPR142 Emax.
The mark [8] stands for this setting: 500 mg/kg p.o. 15 minutes prior to glucose 2 g/kg i.p.
[9] abbreviates: 500 mg/kg p.o., 10 minutes after dosing, vs WT.
Where [10] appears, read: 30 mg/kg p.o., normal C57 mice, fasted state and after oral glucose challenge.

pEC50: −log10 of the molar value. Like-named read-outs stand apart in the source and are kept apart here.

For the compound `C[C@@H](O)[C@H](N)C(=O)O` [L-Threonine], the “HEK293-hGPR142 EC50 (Emax)” value in assay [1] is “Inactive”.
Regarding `N[C@@H](CCC(=O)O)C(=O)O` [L-Glutamic Acid], the “HEK293-hGPR142 EC50 (Emax)” value in assay [1] is recorded as “Inactive”.
Turning to `N[C@@H](Cc1ccccc1)C(=O)O` [L-Phenylalanine], the “IP-1 accumulation in HEK-hGPR142 cells” value in assay [1] (Fig 1A, 1B) is on record as “has an effect in this assay at concentrations comparable to that of L-Trp”. Also, the Emax in assay [1] (setting [7]) was 96%. Moreover, the negative-log EC50 (pEC50) in assay [1] (170 nM to 30 mM) was 2.46. For the same compound, the Emax in assay [2] amounted to 92%. Moreover, in assay [2] (HEK293 cell-based IP-1 assay), the “potency on mouse GPR142 relative to L-Trp (fold less potent)” value was 4 to 5 fold. Also, the pEC50 in assay [2] (170 nM to 30 mM) was 2.55. Moreover, in assay [3], the “insulin secretion in Gpr142 KO islets compared with WT islets” value was “not significantly different” and the “insulin secretion in WT murine islets” value is on record as “more modest”. Also, in assay [4] (setting [8]), the “glucose excursion during IPGTT in Gpr142 KO mice” value was “clearly present” and the “glucose excursion during IPGTT in WT mice” value was “clearly present”. Further, in assay [5] (setting [9]), the “GIP release in Gpr142 KO mice” value is “blunted”, the “insulin release in Gpr142 KO mice” value was “blunted” and the “plasma GLP-1 in Gpr142 KO mice” value is given as “increased GLP-1 in KO mice to a similar extent as in WT”.
For the compound `CC(C)[C@H](N)C(=O)O` [L-Valine], the “HEK293-hGPR142 EC50 (Emax)” value in assay [1] is “Inactive”.
Take `CCCc1c(C(=O)NCc2cncn2C)cnn1-c1ncc(C)c(-c2cccs2)n1` [Compound A, N-[(3-methylimidazol-4-yl)methyl]-1-[5-methyl-4-(2-thienyl)pyrimidin-2-yl]-5-propyl-pyrazole-4-carboxamide]: the Emax in assay [1] (setting [7]) and in assay [2] was 90% throughout. For the same compound, the pEC50 in assay [1] (0.17 nM to 30 μM) is 8.15; in assay [2] (0.17 nM to 30 μM) it was 9.06. Besides, in assay [3], the “insulin secretion in WT murine islets” value was “stimulated ex vivo insulin secretion”. For the same compound, the “insulin secretion in human primary islets” value in assay [6] is listed as “stimulated ex vivo insulin secretion”. For the same compound, in assay [4] (p.o. 30 minutes before glucose 2 g/kg, OGTT 10 mg/kg diet-induced obese C57 mice, IPGTT 30 mg/kg), the “glucose excursion during OGTT and IPGTT” value is listed as “robust suppression of glucose excursion”. The “plasma insulin during glucose tolerance test” value in assay [5] (10 mg/kg p.o., diet-induced obese C57 mice, 15 minutes after glucose challenge) is “increase in plasma insulin”. For the same compound, the “meal induced GIP, GLP-1, and insulin levels” value in assay [5] (30 mg/kg p.o. 30 minutes prior to oral mixed meal challenge (Ensure-plus 10 mL/kg), C57 mice) was “additional stimulatory effects”. The “effects on plasma hormones and glycemia in Gpr142 KO mice” value in assay [5] (30 mg/kg p.o., KO mice) was “completely absent”. Further, the “plasma GIP level” value in assay [5] (setting [10]) is on record as “significantly increased”. Besides, in assay [5] (setting [10]), the “plasma GLP-1 level” value is recorded as “significantly increased”.
Turning to `CSCC[C@H](N)C(=O)O` [L-Methionine], the “HEK293-hGPR142 EC50 (Emax)” value in assay [1] is listed as “Inactive”.
On the same count and under the same terms, next, `NCCc1c[nH]c2ccccc12` [Trytamine]: “Inactive”.
Turning to `Nc1ccccc1C(=O)C[C@H](N)C(=O)O` [L-Kynurenine], the Emax in assay [1] (setting [7]) amounted to 18%. For the same compound, the pEC50 in assay [1] (170 nM to 30 mM) is 1.92.
On to `NC(=O)CC[C@H](N)C(=O)O` [L-Glutamine], for which the “HEK293-hGPR142 EC50 (Emax)” value in assay [1] is “Inactive”.
On the same count and under the same terms, next, `N[C@@H](CS)C(=O)O` [L-Cysteine]: “Inactive”.
For `NCCCC[C@H](N)C(=O)O` [L-Lysine], the Emax in assay [1] (setting [7]) came out at 20%. In assay [1] (170 nM to 30 mM), the pEC50 was 1.80.
As to `N[C@@H](Cc1c[nH]c2ccc(O)cc12)C(=O)O` [5-OH L-Tryptophan], the pEC50 in assay [1] (170 nM to 30 mM) is 1.92. Besides, the “HEK293-hGPR142 Emax” value in assay [1] (relative efficacy normalized to maximal response of L-Tryptophan (100%)) turned out to be 34%.
Take `C[C@H](N)C(=O)O` [L-Alanine]: the “HEK293-hGPR142 EC50 (Emax)” value in assay [1] was “Inactive”.
With `CC(C)C[C@H](N)C(=O)O` [L-Leucine], the “HEK293-hGPR142 EC50 (Emax)” value in assay [1] is “Inactive”.
Same read-out and setting: next, `NCC(=O)O` [Glycine]: “Inactive”; `O=C(O)[C@@H]1CCCN1` [L-Proline]: “Inactive”.
For `N[C@@H](CC(=O)O)C(=O)O` [L-Aspartic Acid], in assay [1] (setting [7]), the Emax was 41%. Moreover, the pEC50 in assay [1] (170 nM to 30 mM) is < 1.70.
For the compound `N[C@@H](Cc1ccc(O)cc1)C(=O)O` [L-Tyrosine], the Emax in assay [1] (setting [7]) was found to be 14%. Besides, the pEC50 in assay [1] (170 nM to 30 mM) was 1.80.
On to `CC[C@H](C)[C@H](N)C(=O)O` [L-Isoleucine], for which the “HEK293-hGPR142 EC50 (Emax)” value in assay [1] is “Inactive”.
Take `N[C@@H](Cc1c[nH]cn1)C(=O)O` [L-Histidine]: in assay [1], the “HEK293-hGPR142 EC50 (Emax)” value was “Inactive”.
As to `N=C(N)NCCC[C@H](N)C(=O)O` [L-Arginine], in assay [1] (HEK293, read-out: HEK293-hGPR142 Emax), the Emax is 23%. Also, in assay [1] (170 nM to 30 mM), the pEC50 is < 1.70.
With `NC(=O)C[C@H](N)C(=O)O` [L-Asparagine], in assay [1], the “HEK293-hGPR142 EC50 (Emax)” value is “Inactive”.
The same measure, in the same setting: the value for `N[C@@H](CO)C(=O)O` [L-Serine] was “Inactive”.
Take `N[C@H](Cc1c[nH]c2ccccc12)C(=O)O` [D-Tryptophan]: the Emax in assay [1] (setting [7]) was determined as 29%. In addition, the negative-log EC50 (pEC50) in assay [1] (170 nM to 30 mM) was 2.46. The “significant activation of GPR142 signaling at concentrations below 10 mM” value in assay [1] (Table 1) is “None”.
